Data on seven compounds can be found in patent US7396837B2, “Antitumoral analogs of lamellarins” (Pharma Mar, S.A.U., priority 2002, dated 2008).

The target of series [1] is T1, human topoisomerase I (Homo sapiens, UniProt P11387).
T1 sequence (P11387 1-765): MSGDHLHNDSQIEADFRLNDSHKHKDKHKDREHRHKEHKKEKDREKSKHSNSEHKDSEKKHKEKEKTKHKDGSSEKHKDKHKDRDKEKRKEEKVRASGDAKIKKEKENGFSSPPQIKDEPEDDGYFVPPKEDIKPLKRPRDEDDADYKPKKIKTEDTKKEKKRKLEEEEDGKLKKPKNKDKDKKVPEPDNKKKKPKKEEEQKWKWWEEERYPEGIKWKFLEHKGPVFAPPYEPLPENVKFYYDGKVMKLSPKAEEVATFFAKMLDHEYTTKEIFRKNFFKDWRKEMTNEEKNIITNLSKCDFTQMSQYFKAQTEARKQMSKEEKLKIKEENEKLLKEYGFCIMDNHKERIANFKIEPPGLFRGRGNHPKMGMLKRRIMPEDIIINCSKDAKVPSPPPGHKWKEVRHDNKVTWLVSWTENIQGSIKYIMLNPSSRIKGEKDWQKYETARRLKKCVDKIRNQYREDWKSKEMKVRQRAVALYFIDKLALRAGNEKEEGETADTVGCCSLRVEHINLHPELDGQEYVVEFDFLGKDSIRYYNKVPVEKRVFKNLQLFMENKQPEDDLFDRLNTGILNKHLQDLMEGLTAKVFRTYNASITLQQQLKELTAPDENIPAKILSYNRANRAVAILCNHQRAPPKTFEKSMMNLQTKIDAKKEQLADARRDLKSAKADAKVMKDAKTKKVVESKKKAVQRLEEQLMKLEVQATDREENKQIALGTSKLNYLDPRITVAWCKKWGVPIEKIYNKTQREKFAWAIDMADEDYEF
Briefly: Topoisomerase I DNA relaxation assay (supercoiled plasmid DNA). The format is biochemical. The following applies: for stimulation of DNA cleavage by topoisomerase I / inhibition of topoisomerase I (nicked DNA band) in DNA relaxation assay: supercoiled plasmid DNA, each compound tested at 1 μM, agarose gel with ethidium bromide. As for the experimental part:
(§1) Two assays, based on DNA relaxation and DNA cleavage (Bailly, C. DNA relaxation and cleavage assays to study topoisomerase I inhibitors. Methods Enzymol. 2001, 340, 610-623) were used evaluate the effects of the lamellarin analogs on the catalytic activity of human topoisomerase I.
In the first assay, a supercoiled plasmid DNA was relaxed with topoisomerase I in the absence or presence of the test compounds, each tested at 1 μM. DNA relaxation products were then resolved by gel electrophoresis on agarose gels containing ethidium bromide to stain the DNA.

Series [2] addresses T1, human topoisomerase I. As to the kind of experiment: Topoisomerase I cleavage of radiolabeled 117-bp DNA fragment. Type of series: biochemical. The following applies: 117-bp DNA restriction fragment 3' end-labeled, sequencing-type polyacrylamide gels.
Source text: as §1
A second assay, based on the cleavage of a radiolabeled DNA substrate by topoisomerase I, was used to confirm that the cationic lamellarin derivatives do effectively function as topoisomerase I poisons. A 117-bp DNA restriction fragment uniquely end-labeled at the 3′ end was subjected to cleavage by topoisomerase I in the presence of the different compounds and the resulting DNA cleavage products were resolved on sequencing-type polyacrylamide gels. The advantage of this assay is to detect the cleavage sites and to locate their positions with nucleotide resolution, providing thus information on the site selectivity of cleavage.

The test system of series [3] is K-562. As to the kind of experiment: SRB colorimetric cell growth inhibition assay, K-562. Type of series: cell-based. A digest of the protocol:
(§2)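 Triplicate-well SRB colorimetry following continuous sample exposure of human tumour cells; reported parameters are GI, TGI for cytostatic effect, and LC for cytotoxic effect.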

For series [4], the system named is A-549. Briefly: SRB colorimetric cell growth inhibition assay, A-549. The format is cell-based. The following applies: Homo sapiens. A digest of the protocol:
as §2

Series [5] concerns SK-MEL-28. Briefly: SRB colorimetric cell growth inhibition assay, SK-MEL-28. The format is cell-based. The procedure, abridged:
as §2

For series [6], the system named is HT-29. Briefly: SRB colorimetric cell growth inhibition assay, HT-29. The format is cell-based. The procedure, abridged:
as §2

For series [7], the system named is LoVo. As to the kind of experiment: SRB colorimetric cell growth inhibition assay, LoVo. As to conditions: Homo sapiens, LoVo. The format is cell-based. The procedure, abridged:
as §2

In series [8] the test system is LoVo-Dox. Briefly: SRB colorimetric cell growth inhibition assay, LoVo-Dox (MDR). Type of series: cell-based. As to conditions: Homo sapiens. A digest of the protocol: as §2
The test system of series [9] is DU-145. As to the kind of experiment: SRB colorimetric cell growth inhibition assay, DU-145. Type of series: cell-based. A digest of the protocol:
as §2

Series [10] relates to LNCaP. As to the kind of experiment: SRB colorimetric cell growth inhibition assay, LNCaP. As to conditions: Homo sapiens, LNCaP. The format is cell-based. The procedure, abridged:
as §2

The test system of series [11] is SK-BR-3. As to the kind of experiment: SRB colorimetric cell growth inhibition assay, SK-BR-3. The format is cell-based. The procedure, abridged: as §2
Series [12] has as its system IGROV. As to the kind of experiment: SRB colorimetric cell growth inhibition assay, IGROV. The format is cell-based. The following applies: IGROV. The procedure, abridged:
as §2

In series [13] the test system is IGROV-ET. Briefly: SRB colorimetric cell growth inhibition assay, IGROV-ET (ET-743 resistant). The format is cell-based. The following applies: Homo sapiens. A digest of the protocol:
as §2

For series [14], the system named is PANC-1. Briefly: SRB colorimetric cell growth inhibition assay, PANC-1. Type of series: cell-based. The following applies: Homo sapiens. A digest of the protocol: as §2
The subject of series [15] is SKOV-3. As to the kind of experiment: SRB colorimetric cell growth inhibition assay, SKOV-3. Type of series: cell-based. As to conditions: Homo sapiens. The procedure, abridged:
(§3)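 Growth inhibition (GI), total growth inhibition (TGI, cytostatic) and lethal concentration (LC, cytotoxic) come from an SRB-based colorimetric measure of growth and viability. Data are triplicate-well means ± SD.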

Series [16] is described as follows: SRB colorimetric cell growth inhibition assay, H-MEC-1. Type of series: cell-based. The following applies: human. The procedure, abridged:
as §3

Series [17] deals with H-MEC-1. Described as above. Type of series: cell-based. As to conditions: Homo sapiens, HMEC-1, H-MEC-1. A digest of the protocol: as §3
The subject of series [18] is fertilised sea urchin. As to conditions: fertilised sea urchin assay; cited from earlier work.
Series [19] has as its system P388. As to conditions: P388 cell line in culture; cited from earlier work.
The subject of series [20] is A549. As to conditions: A549 cell line in culture; cited from earlier work.

Turning to `COc1cc(-c2c3c4cc(OC)c(OC(=O)[C@@H](N)Cc5ccccc5)cc4oc(=O)c3n3ccc4cc(OC(=O)[C@@H](N)Cc5ccccc5)c(OC)cc4c23)ccc1OC(=O)[C@@H](N)Cc1ccccc1` [Compound 25], the “potency at inhibiting topoisomerase I relative to the other amino acid derivatives” value in series [1] (DNA relaxation assay) is given as “significantly less potent than the other amino acid derivatives”. For the same compound, the “stimulation of DNA cleavage by topoisomerase I / inhibition of topoisomerase I (nicked DNA band) in DNA relaxation assay” value in series [1] is recorded as “marked inhibition of topoisomerase I”. In series [2], the “topoisomerase I-mediated DNA cleavage sites / cleavage profile” value is reported as “Cleavage profiles identical to that of 3”.
The GI50 is the concentration that inhibits growth by half. With `COc1cc(-c2c3n(c4c(=O)oc5cc(OC(=O)[C@@H](N)C(C)C)c(OC)cc5c24)CCc2cc(OC(=O)[C@@H](N)C(C)C)c(OC)cc2-3)ccc1OC(=O)[C@@H](N)C(C)C` [Compound 37], the IC (TGI) in series [3] (Homo sapiens, K562, K-562, TGI=total growth inhibition (cytostatic effect), read-out: TGI K-562) worked out at 1970 nM; in series [4] (A549, A-549, TGI=total growth inhibition (cytostatic effect), read-out: TGI A-549), 3800 nM; in [5] (Homo sapiens, SK-MEL-28, MEL-28, total growth inhibition (cytostatic effect), read-out: TGI MEL-28), 2680 nM; in series [6] (Homo sapiens, HT-29, HT-29, TGI=total growth inhibition (cytostatic effect), read-out: TGI HT-29), 2000 nM; in series [7] (TGI=total growth inhibition (cytostatic effect), read-out: TGI LOVO) it was 4400 nM; in series [8] (LOVO-DOX, TGI=total growth inhibition (cytostatic effect), read-out: TGI LOVO-DOX) it was 4600 nM. In addition, the IC (TGI) in series [10] (LN-caP, total growth inhibition (cytostatic effect), read-out: TGI LN-caP) amounted to 2180 nM; in series [11] (Homo sapiens, SK-BR-3, SK-BR-3, total growth inhibition (cytostatic effect), read-out: TGI SK-BR-3), 2120 nM; in series [13] (IGROV-ET, total growth inhibition (cytostatic effect), read-out: TGI IGROV-ET), 2110 nM; in [14] (PANC-1, PANC-1, TGI=total growth inhibition (cytostatic effect), read-out: TGI PANC-1), 11000 nM; in series [15] (SK-OV-3, SKOV-3, total growth inhibition (cytostatic effect), read-out: TGI SKOV-3), 3580 nM; in series [17] (total growth inhibition (cytostatic effect), read-out: TGI H-MEC-1), 1260 nM. In addition, the CC50 was 7530 nM in series [3] (Homo sapiens, K562, read-out: LC50 K-562, K-562, LC=cell killing (cytotoxic effect)); 8380 nM in series [4] (A549, read-out: LC50 A-549, A-549, LC=cell killing (cytotoxic effect)); 7950 nM in [5] (Homo sapiens, SK-MEL-28, read-out: LC50 MEL-28, MEL-28, cell killing (cytotoxic effect)); 10900 nM in [6] (Homo sapiens, HT-29, read-out: LC50 HT-29, HT-29, LC=cell killing (cytotoxic effect)); 10800 nM in series [7] (read-out: LC50 LOVO, LOVO, LC=cell killing (cytotoxic effect)); 10100 nM in [8] (read-out: LC50 LOVO-DOX, LOVO-DOX, LC=cell killing (cytotoxic effect)). Moreover, the CC50 in [9] (Homo sapiens, DU-145, read-out: LC50 DU-145, DU-145, cell killing (cytotoxic effect)) is 5620 nM; in [10] (read-out: LC50 LN-caP, LN-caP, cell killing (cytotoxic effect)), 5050 nM; in series [11] (Homo sapiens, SK-BR-3, read-out: LC50 SK-BR-3, SK-BR-3, cell killing (cytotoxic effect)), 10600 nM; in [12] (Homo sapiens, read-out: LC50 IGROV, IGROV, cell killing (cytotoxic effect)), 5890 nM; in [13] (read-out: LC50 IGROV-ET, IGROV-ET, cell killing (cytotoxic effect)), 8040 nM; in series [14] (PANC-1, read-out: LC50 PANC-1, PANC-1, LC=cell killing (cytotoxic effect)) it was 11000 nM. The GI50 was determined as 12.4 nM in [3] (K-562, GI=growth inhibition, read-out: GI50 K-562); 1720 nM in series [4] (A549, A-549, GI=growth inhibition, read-out: GI50 A-549); 623 nM in series [5] (MEL-28, GI=growth inhibition, read-out: GI50 MEL-28); 91.2 nM in series [6] (HT-29, GI=growth inhibition, read-out: GI50 HT-29); 1790 nM in series [7] (GI=growth inhibition, read-out: GI50 LOVO); 2100 nM in series [8] (LOVO-DOX, GI=growth inhibition, read-out: GI50 LOVO-DOX). Also, the GI50 in series [9] (DU-145, GI=growth inhibition, read-out: GI50 DU-145) came to 67.7 nM; in series [10] (LN-caP, GI=growth inhibition, read-out: GI50 LN-caP) it was 593 nM; in series [11] (SK-BR-3, GI=growth inhibition, read-out: GI50 SK-BR-3), 57.6 nM; in [12] (GI=growth inhibition, read-out: GI50 IGROV), 577 nM; in [13] (IGROV-ET, GI=growth inhibition, read-out: GI50 IGROV-ET), 359 nM; in series [14] (PANC-1, PANC-1, GI=growth inhibition, read-out: GI50 PANC-1), 2150 nM. Moreover, the GI50 came to 1620 nM in series [15] (SK-OV-3, SKOV-3, GI=growth inhibition, read-out: GI50 SKOV-3) and 97.4 nM in [17] (GI=growth inhibition, read-out: GI50 H-MEC-1). Also, the “TGI DU-145” value in series [9] (DU-145, total growth inhibition (cytostatic effect)) worked out at 1.55E−06 Molar. The “TGI IGROV” value in series [12] (total growth inhibition (cytostatic effect)) is reported as 2.17E−06 Molar. For the same compound, the LC50 (concentration causing 50% net cell killing) in series [15] (SK-OV-3, read-out: LC50 SKOV-3) was 7870 nM. In addition, in series [16], the LC50 (concentration giving 50% net cell killing) was determined as 4730 nM.
For the compound `COc1cc(-c2c3n(c4c(=O)oc5cc(O)c(OC)cc5c24)CCc2c-3cc(OC)c(OC)c2OC)ccc1O` [Lamellarin C, lamellarin C], the “inhibition of cell division” value in series [18] is “inhibition of cell division”.
On to `COc1cc2c(cc1O)oc(=O)c1c2c(-c2ccc(OC)c(OC)c2)c2n1CCc1c-2cc(OC)c(OC)c1OC` [Lamellarin I, lamellarin I], for which the cytotoxicity entry in [19] and in [20] was “comparable cytoxicity” each time.
With `COc1cc(-c2c3n(c4c(=O)oc5cc(O)c(OC)cc5c24)CCc2c-3cc(OC)c(OC)c2O)ccc1O` [Lamellarin K, lamellarin K], the cytotoxicity entry in series [19] and in [20] was “comparable cytoxicity” each time.
Take `COc1ccc(-c2c3n(c4c(=O)oc5cc(O)c(OC)cc5c24)CCc2cc(O)c(OC)cc2-3)cc1O` [Lamellarin L, lamellarin L]: the cytotoxicity entry in series [19] and in series [20] was “comparable cytoxicity” throughout.
For the compound `CC[C@@]1(O)C(=O)OCc2c1cc1n(c2=O)Cc2cc3ccccc3nc2-1` [camptothecin, reference compound], the “stimulation of DNA cleavage by topoisomerase I / inhibition of topoisomerase I (nicked DNA band) in DNA relaxation assay” value in [1] is “strongly promotes DNA cleavage by topoisomerase I”. Further, the “topoisomerase I-mediated DNA cleavage sites / cleavage profile” value in [2] was “T^↓G only”; in [2] (listed as CPT), “three sites at nucleotide positions 26, 48 and 81”.
